Reference: PubChem BioAssay (NCI)
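Results reflect a 48-hour exposure of cells in 96-well plates to compound at five concentrations. Definition used: TGI = concentration required for complete inhibition of growth.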

Key:
Test in all cases: NCI anticancer screen, dose series, 48 h
[1] = system: NCI-H460 lung
[2] = system: HOP-92 NSCLC
[3] = system: RXF 393 renal
[4] = system: A498 renal
[5] = system: KM20L2 colon
[6] = system: SF-295 CNS
[7] = system: SNB-19 CNS
[8] = system: SW-620 colon
[9] = system: SK-MEL-2 melanoma
[10] = system: ACHN renal
[11] = system: CCRF-CEM leukemia
[12] = system: LXFL 529 NSCLC
[13] = system: HCT-116 colon
[14] = system: M14 melanoma
[15] = system: NCI-H522 lung
[16] = system: SNB-75 CNS
[17] = system: HOP-62 NSCLC
[18] = system: CAKI-1 renal
[19] = system: MOLT-4 leukemia
[20] = system: SK-OV-3 ovarian
[21] = system: SK-MEL-5 melanoma
[22] = system: M19-MEL melanoma
[23] = system: HCT-15 colon
[24] = system: NCI-H23 lung
[25] = system: U251 CNS
[26] = system: XF 498 CNS
[27] = system: SR leukemia
[28] = system: DMS 114 small cell lung
[29] = system: 786-0 renal
[30] = system: UACC-62 melanoma
[31] = system: EKVX NSCLC
[32] = system: HL-60(TB) leukemia
[33] = system: NCI-H226 lung
[34] = system: RPMI-8226 leukemia
[35] = system: OVCAR-4 ovarian
[36] = system: HT29 colon
[37] = system: LOX IMVI melanoma
[38] = system: SF-539 CNS
[39] = system: HCC-2998 colon
[40] = system: KM12 colon
[41] = system: OVCAR-8 ovarian
[42] = system: IGROV1 ovarian
[43] = system: SF-268 CNS
[44] = system: OVCAR-3 ovarian
[45] = system: DMS 273 small cell lung
[46] = system: MALME-3M melanoma
[47] = system: K-562 leukemia
[48] = system: A549 NSCLC
[49] = system: TK-10 renal
[50] = system: SN12C renal
[51] = system: UO-31 renal
[52] = system: OVCAR-5 ovarian
[53] = system: DLD-1 colon
[54] = system: UACC-257 melanoma
[55] = system: SK-MEL-28 melanoma
[56] = system: COLO 205 colon
[57] = system: HOP-18 NSCLC
[58] = system: SNB-78 CNS

O=C1C(=O)N(c2ccc(Cl)cc2Cl)C(=O)C(=O)C1c1nc2ccccc2s1
TGI [1]: > 100 µM
TGI [2]: > 100 µM
TGI [3]: > 100 µM
TGI [4]: > 100 µM
TGI [5]: > 100 µM
TGI [6]: > 100 µM
TGI [7]: > 100 µM
TGI [8]: > 100 µM
TGI [9]: > 100 µM
TGI [10]: > 100 µM
TGI [11]: 88.9 µM
TGI [12]: > 100 µM
TGI [13]: > 100 µM
TGI [14]: > 100 µM
TGI [15]: > 57.2 µM
TGI [16]: 81.8 µM
TGI [17]: > 100 µM
TGI [18]: > 100 µM
TGI [19]: > 89.2 µM
TGI [20]: > 100 µM
TGI [21]: > 100 µM
TGI [22]: > 100 µM
TGI [23]: > 100 µM
TGI [24]: > 100 µM
TGI [25]: > 100 µM
TGI [26]: 98.1 µM
TGI [27]: 79.2 µM
TGI [28]: > 100 µM
TGI [29]: > 100 µM
TGI [30]: > 100 µM
TGI [31]: > 100 µM
TGI [32]: 67.1 µM
TGI [33]: > 100 µM
TGI [34]: > 100 µM
TGI [35]: > 100 µM
TGI [36]: > 100 µM
TGI [37]: > 100 µM
TGI [38]: > 100 µM
TGI [39]: > 100 µM
TGI [40]: > 100 µM
TGI [41]: > 100 µM
TGI [42]: > 100 µM
TGI [43]: > 100 µM
TGI [44]: > 100 µM
TGI [45]: > 100 µM
TGI [46]: > 100 µM
TGI [47]: > 100 µM
TGI [48]: > 100 µM
TGI [49]: > 100 µM
TGI [50]: > 100 µM
TGI [51]: > 100 µM
TGI [52]: > 100 µM
TGI [53]: > 92.2 µM
TGI [54]: > 100 µM
TGI [55]: > 100 µM
TGI [56]: > 100 µM
TGI [57]: > 100 µM

COc1cc([C@@H]2OCC3C(c4ccc5c(c4)OCO5)OCC32)cc(OC)c1OC (some centres not stated)
TGI [1]: > 100 µM
TGI [2]: 60.9 µM
TGI [3]: > 100 µM
TGI [4]: > 100 µM
TGI [5]: > 100 µM
TGI [6]: > 100 µM
TGI [7]: > 100 µM
TGI [8]: > 100 µM
TGI [9]: > 100 µM
TGI [10]: > 100 µM
TGI [11]: > 100 µM
TGI [12]: > 100 µM
TGI [13]: > 100 µM
TGI [14]: > 100 µM
TGI [15]: > 100 µM
TGI [16]: > 100 µM
TGI [17]: > 100 µM
TGI [18]: > 100 µM
TGI [19]: > 100 µM
TGI [20]: > 100 µM
TGI [22]: > 100 µM
TGI [23]: > 100 µM
TGI [24]: > 100 µM
TGI [25]: > 100 µM
TGI [26]: > 100 µM
TGI [27]: > 100 µM
TGI [28]: > 100 µM
TGI [29]: > 100 µM
TGI [31]: > 100 µM
TGI [32]: > 100 µM
TGI [33]: > 100 µM
TGI [34]: > 100 µM
TGI [35]: > 100 µM
TGI [36]: > 100 µM
TGI [58]: > 100 µM
TGI [37]: > 100 µM
TGI [38]: > 100 µM
TGI [39]: > 100 µM
TGI [40]: > 100 µM
TGI [41]: > 100 µM
TGI [42]: > 100 µM
TGI [43]: > 100 µM
TGI [44]: > 100 µM
TGI [45]: > 100 µM
TGI [46]: > 100 µM
TGI [47]: > 100 µM
TGI [48]: > 100 µM
TGI [50]: > 100 µM
TGI [51]: > 100 µM
TGI [52]: > 100 µM
TGI [53]: > 100 µM
TGI [55]: > 100 µM
TGI [56]: > 100 µM

COc1ccc(C(=O)C(C(=O)CCC(=O)Nc2ccc(C)c(C)c2)c2ccc(OC)cc2)cc1 (configuration not stated)
TGI [1]: > 100 µM
TGI [2]: > 100 µM
TGI [5]: > 100 µM
TGI [6]: > 100 µM
TGI [8]: > 100 µM
TGI [9]: > 100 µM
TGI [12]: > 100 µM
TGI [13]: > 100 µM
TGI [14]: > 100 µM
TGI [17]: > 100 µM
TGI [18]: > 100 µM
TGI [22]: > 100 µM
TGI [23]: > 100 µM
TGI [27]: > 100 µM
TGI [28]: > 100 µM
TGI [32]: > 100 µM
TGI [33]: > 100 µM
TGI [35]: > 100 µM
TGI [36]: > 100 µM
TGI [37]: > 100 µM
TGI [39]: > 100 µM
TGI [40]: > 100 µM
TGI [41]: > 100 µM
TGI [44]: > 100 µM
TGI [45]: > 100 µM
TGI [46]: > 100 µM
TGI [50]: > 100 µM
TGI [51]: > 100 µM
TGI [52]: > 100 µM
TGI [54]: > 100 µM
TGI [56]: > 100 µM
TGI [57]: > 100 µM

N#CC1C(C#N)C2(c3ccccc3)C(c3ccccc3)=NN(c3ccccc3)CC12 (configuration not stated)
TGI [1]: > 100 µM
TGI [3]: > 100 µM
TGI [4]: > 100 µM
TGI [5]: > 100 µM
TGI [6]: > 100 µM
TGI [7]: > 100 µM
TGI [8]: > 100 µM
TGI [9]: > 100 µM
TGI [10]: > 100 µM
TGI [11]: > 100 µM
TGI [12]: > 100 µM
TGI [13]: > 100 µM
TGI [14]: > 100 µM
TGI [16]: > 100 µM
TGI [18]: > 100 µM
TGI [19]: > 100 µM
TGI [21]: > 100 µM
TGI [22]: > 100 µM
TGI [23]: > 100 µM
TGI [25]: > 100 µM
TGI [26]: > 100 µM
TGI [27]: > 100 µM
TGI [28]: > 100 µM
TGI [29]: > 100 µM
TGI [30]: > 100 µM
TGI [31]: > 100 µM
TGI [32]: > 100 µM
TGI [33]: > 100 µM
TGI [34]: > 100 µM
TGI [35]: > 100 µM
TGI [58]: > 100 µM
TGI [37]: > 100 µM
TGI [38]: > 100 µM
TGI [39]: > 100 µM
TGI [40]: > 100 µM
TGI [41]: > 100 µM
TGI [42]: > 100 µM
TGI [44]: > 100 µM
TGI [45]: > 100 µM
TGI [46]: > 100 µM
TGI [47]: > 100 µM
TGI [48]: > 100 µM
TGI [49]: > 100 µM
TGI [50]: > 100 µM
TGI [51]: > 100 µM
TGI [52]: > 100 µM
TGI [53]: > 100 µM
TGI [54]: > 100 µM
TGI [55]: > 100 µM
TGI [57]: > 100 µM
